Measured values: patent US4672057A, “Morpholino derivatives of daunorubicin and doxorubicin” (priority 1985, dated 1987)
Values after ≈ are worked out from the molar mass of the structure shown. Read-outs that look alike come from different tables or passages of the source.

Key:
HeLa cells = assay: Colony inhibition test against HeLa cells in vitro; assay type: cell-based; conditions: Homo sapiens
Description: The compounds have been tested in several experimental systems in order to ascertain their cytotoxicity and antitumor activity in experimental animals.
Colony inhibition test against HeLa cells
in vitro (treatment for 24 hrs)

P388 leukemia = assay: Antitumor activity against P388 leukemia in CDF-1 mice; assay type: in vivo; conditions: for LTS (long term survivors, >60 days) / Toxic deaths / T/C %: ip on day 1; for Toxic deaths: autopsy findings; for T/C %: median survival time
Method: (§1) The primary screening in vivo was carried out in CDF-1 mice bearing P388 ascetic leukemia (10^6 cells/mouse). […] The doxorubicin analogs II, IV, VI have been tested in C3H mice bearing the Gross leukemia injected iv (2×10^6 cell/mouse). […] Compound II has been studied on P388 leukemia cells resistant to doxorubicin (P388/DX) in vitro and in vivo. Cytotoxicity tests were carried out exposing the cells to various drug concentrations for 48 hrs. At the end of exposure period cells were counted with a coulter cell counter, and the ID50 (dose which gives 50% reduction of the cell number in comparison with untreated controls) was calculated. […] Compound II has been tested also in vivo in BDF-1 mice bearing P388/DX leukemia.
Antitumor activity against P388 leukemia
^a Median survival time; % over untreated controls
^b Long term survivors (>60 days)
^c Evaluated on the basis of autopsy findings on dead mice

Gross leukemia = assay: Activity on Gross leukemia in C3H mice; assay type: in vivo; conditions: for LTS (long term survivors, >60 days) / Toxic deaths / T/C %: iv on day 1; for Toxic deaths: autopsy findings; for T/C %: median survival time; for potency versus doxorubicin in Gross leukemia: iv on day 1 after tumor inoculation
Method: as §1
Activity on Gross leukemia (IV-1)

P388 leukemia cells = assay: Cytotoxicity test on doxorubicin-sensitive P388 leukemia cells in vitro; assay type: cell-based; conditions: for IC50: Mus musculus
Method: as §1
(§2) Effect on sensitive and doxorubicin-resistant
(§3) ^a Dose giving 50% reduction of cell number in comparison with
^b P388 leukemia cells sensitive to doxorubicin

P388/DX leukemia cells = assay: Cytotoxicity test on doxorubicin-resistant P388 leukemia cells (P388/DX) in vitro; assay type: cell-based; conditions: for activity on P388/DX leukemia cells: P388/DX cells in vitro, 48 hrs
Method: as §1, §2, §3
^c P388 leukemia cells resistant to doxorubicin

P388/DX leukemia = assay: Effect on doxorubicin-resistant P388 leukemia (P388/DX) in vivo; parameters: species or system BDF-1 mice; conditions: for Toxic deaths: autopsy findings; for T/C: median survival time
Method: as §1
Effect on doxorubicin-resistant P388 leukemia

[1] = compared with doxorubicin, P388 leukemia in mice
[2] = HeLa cells, colony inhibition, treatment for 24 hrs, read-out: ID50 (the source's name)

COc1cccc2c1C(=O)c1c(O)c3c(c(O)c1C2=O)C[C@@](O)(C(C)=O)C[C@@H]3O[C@H]1C[C@H](N2CCOC(OC)C2)[C@H](O)[C@H](C)O1 (stereo partly shown) [Compound I, 3'-deamino-3'-(2"-methoxy-4"-morpholinyl)daunorubicin]
IC50 (HeLa cells; HeLa, 24 h, read-out: ID50): 2 ng/mL (≈ 3.19 nM) | LTS (long term survivors, >60 days) (P388 leukemia; 0.13 mg/Kg): 0/10 | Toxic deaths (P388 leukemia; 0.13 mg/Kg): 0/10 | T/C % (P388 leukemia; 0.13 mg/Kg): 136%

COc1cccc2c1C(=O)c1c(O)c3c(c(O)c1C2=O)C[C@@](O)(C(=O)CO)C[C@@H]3O[C@H]1C[C@H](N2CCOC(OC)C2)[C@H](O)[C@H](C)O1 (stereo partly shown) [Compound II, 3'-deamino-3'-(2"-methoxy-4"-morpholinyl)doxorubicin]
IC50 (HeLa cells; HeLa, 24 h, read-out: ID50): 0.96 ng/mL (≈ 1.49 nM) | LTS (long term survivors, >60 days) (P388 leukemia; 0.15 mg/Kg): 2/10 | Toxic deaths (P388 leukemia; 0.15 mg/Kg): 0/10 | T/C % (P388 leukemia; 0.15 mg/Kg): 295% | efficacy versus the parent drug (P388 leukemia; [1]): exhibits a major efficacy | potency versus the parent drug (P388 leukemia; [1]): more potent than the parent drug | times more potent than the parent drug (P388 leukemia; [1]): 60 times | LTS (long term survivors, >60 days) (Gross leukemia; 0.16 mg/Kg): 0/10 | Toxic deaths (Gross leukemia; 0.16 mg/Kg): 0/10 | T/C % (Gross leukemia; 0.16 mg/Kg): 150% | potency versus doxorubicin in Gross leukemia (Gross leukemia): more potent than doxorubicin | IC50 (P388 leukemia cells; P388, 48 h, read-out: ID50): 0.3 ng/mL (≈ 0.466 nM) | times more cytotoxic than doxorubicin (P388 leukemia cells; P388 leukemia cells): 40 times | activity on P388/DX leukemia cells (P388/DX leukemia cells): very active | IC50 (P388/DX leukemia cells; P388/DX, 48 h, read-out: ID50): 3 ng/mL (≈ 4.66 nM) | LTC (long term survivors, >60 days) (P388/DX leukemia; 0.075 mg/Kg): 0/10 | Toxic deaths (P388/DX leukemia; 0.075 mg/Kg): 0/10 | T/C (P388/DX leukemia; 0.075 mg/Kg): 100% | LTC (long term survivors, >60 days) (P388/DX leukemia; 0.15 mg/Kg): 0/10 | Toxic deaths (P388/DX leukemia; 0.15 mg/Kg): 1/10 | T/C (P388/DX leukemia; 0.15 mg/Kg): 165% | activity in P388/DX leukemia in vivo (P388/DX leukemia; BDF-1 mice, 0.15 mg/Kg): very active

COc1cccc2c1C(=O)c1c(O)c3c(c(O)c1C2=O)C[C@@](O)(C(C)=O)C[C@@H]3O[C@H]1C[C@H](N)[C@H](O)[C@H](C)O1 [Daunorubicin, daunorubicin]
IC50 (HeLa cells; [2]): 18.6 ng/mL (≈ 35.3 nM) | LTS (long term survivors, >60 days) (P388 leukemia; 2.9 mg/Kg): 0/10 | Toxic deaths (P388 leukemia; 2.9 mg/Kg): 0/10 | T/C % (P388 leukemia; 2.9 mg/Kg): 145% | LTS (long term survivors, >60 days) (P388 leukemia; 4.4 mg/Kg): 0/10 | Toxic deaths (P388 leukemia; 4.4 mg/Kg): 1/10 | T/C % (P388 leukemia; 4.4 mg/Kg): 150%

COc1cccc2c1C(=O)c1c(O)c3c(c(O)c1C2=O)C[C@@](O)(C(=O)CO)C[C@@H]3O[C@H]1C[C@H](N)[C@H](O)[C@H](C)O1 [Doxorubicin, doxorubicin]
IC50 (HeLa cells; [2]): 18 ng/mL (≈ 33.1 nM) | LTS (long term survivors, >60 days) (P388 leukemia; 6.6 mg/Kg): 0/10 | Toxic deaths (P388 leukemia; 6.6 mg/Kg): 0/10 | T/C % (P388 leukemia; 6.6 mg/Kg): 214% | LTS (long term survivors, >60 days) (P388 leukemia; 10 mg/Kg): 1/10 | Toxic deaths (P388 leukemia; 10 mg/Kg): 0/10 | T/C % (P388 leukemia; 10 mg/Kg): 214% | LTS (long term survivors, >60 days) (Gross leukemia; 10 mg/Kg): 0/10 | Toxic deaths (Gross leukemia; 10 mg/Kg): 0/10 | T/C % (Gross leukemia; 10 mg/Kg): 183% | LTS (long term survivors, >60 days) (Gross leukemia; 13 mg/Kg): 0/10 | Toxic deaths (Gross leukemia; 13 mg/Kg): 0/10 | T/C % (Gross leukemia; 13 mg/Kg): 200% | IC50 (P388 leukemia cells; P388 sensitive to doxorubicin, 48 hrs exposure, cell count, read-out: ID50 (the source's name)): 12 ng/mL (≈ 22.1 nM) | activity on P388/DX leukemia cells (P388/DX leukemia cells): inactive | IC50 (P388/DX leukemia cells; P388/DX resistant to doxorubicin, 48 hrs exposure, cell count, read-out: ID50 (the source's name)): 1500 ng/mL (≈ 2760 nM) | LTC (long term survivors, >60 days) (P388/DX leukemia; 4.4 mg/Kg): 0/10 | Toxic deaths (P388/DX leukemia; 4.4 mg/Kg): 0/10 | T/C (P388/DX leukemia; 4.4 mg/Kg): 110% | LTC (long term survivors, >60 days) (P388/DX leukemia; 6.6 mg/Kg): 0/10 | Toxic deaths (P388/DX leukemia; 6.6 mg/Kg): 0/10 | T/C (P388/DX leukemia; 6.6 mg/Kg): 100%

COc1cccc2c1C(=O)c1c(O)c3c(c(O)c1C2=O)C[C@@](O)(C(C)=O)C[C@@H]3O[C@H]1C[C@H](N2CC(C)OC(OC)C2)[C@H](O)[C@H](C)O1 (stereo partly shown) [III, 3'-deamino-3'-(2"-methoxy-6"-methyl-4"-morpholinyl)daunorubicin]
IC50 (HeLa cells; HeLa, 24 h, read-out: ID50): 1.8 ng/mL (≈ 2.81 nM)

COc1cccc2c1C(=O)c1c(O)c3c(c(O)c1C2=O)C[C@@](O)(C(=O)CO)C[C@@H]3O[C@H]1C[C@H](N2CC(C)OC(OC)C2)[C@H](O)[C@H](C)O1 (stereo partly shown) [IV, 3'-deamino-3'-(2"-methoxy-6"-methyl-4"-morpholinyl)doxorubicin]
IC50 (HeLa cells; HeLa, 24 h, read-out: ID50): 0.32 ng/mL (≈ 0.487 nM) | LTS (long term survivors, >60 days) (P388 leukemia; 0.2 mg/Kg): 0/10 | Toxic deaths (P388 leukemia; 0.2 mg/Kg): 0/10 | T/C % (P388 leukemia; 0.2 mg/Kg): 173% | potency versus the parent drug (P388 leukemia; [1]): more potent than the parent drug | LTS (long term survivors, >60 days) (Gross leukemia; 0.27 mg/Kg): 0/10 | Toxic deaths (Gross leukemia; 0.27 mg/Kg): 0/10 | T/C % (Gross leukemia; 0.27 mg/Kg): 142% | potency versus doxorubicin in Gross leukemia (Gross leukemia): more potent than doxorubicin

COc1cccc2c1C(=O)c1c(O)c3c(c(O)c1C2=O)C[C@@](O)(C(C)=O)C[C@@H]3O[C@H]1C[C@H](N2CC(CO)OC(OC)C2)[C@H](O)[C@H](C)O1 (stereo partly shown) [V, 3'-deamino-3'-(2"-methoxy-6"-hydroxymethyl-4"-morpholinyl)daunorubicin]
IC50 (HeLa cells; HeLa, 24 h, read-out: ID50): 10.5 ng/mL (≈ 16 nM) | LTS (long term survivors, >60 days) (P388 leukemia; 2.0 mg/Kg): 0/10 | Toxic deaths (P388 leukemia; 2.0 mg/Kg): 0/10 | T/C % (P388 leukemia; 2.0 mg/Kg): 145% | LTS (long term survivors, >60 days) (P388 leukemia; 3.0 mg/Kg): 0/10 | Toxic deaths (P388 leukemia; 3.0 mg/Kg): 0/10 | T/C % (P388 leukemia; 3.0 mg/Kg): 164% | activity versus daunorubicin (increase of mice life span) (P388 leukemia; same optimal dose, P388 leukemia in mice): more active than daunorubicin

COc1cccc2c1C(=O)c1c(O)c3c(c(O)c1C2=O)C[C@@](O)(C(=O)CO)C[C@@H]3O[C@H]1C[C@H](N2CC(CO)OC(OC)C2)[C@H](O)[C@H](C)O1 (stereo partly shown) [VI, 3'-deamino-3'-(2"-methoxy-6"-hydroxymethyl-4"-morpholinyl)doxorubicin]
IC50 (HeLa cells; HeLa, 24 h, read-out: ID50): 9 ng/mL (≈ 13.4 nM) | LTS (long term survivors, >60 days) (P388 leukemia; 1.33 mg/Kg): 0/10 | Toxic deaths (P388 leukemia; 1.33 mg/Kg): 0/10 | T/C % (P388 leukemia; 1.33 mg/Kg): 164% | LTS (long term survivors, >60 days) (P388 leukemia; 2.0 mg/Kg): 0/10 | Toxic deaths (P388 leukemia; 2.0 mg/Kg): 0/10 | T/C % (P388 leukemia; 2.0 mg/Kg): 195% | potency versus the parent drug (P388 leukemia; [1]): more potent than the parent drug | LTS (long term survivors, >60 days) (Gross leukemia; 2 mg/Kg): 0/10 | Toxic deaths (Gross leukemia; 2 mg/Kg): 0/10 | T/C % (Gross leukemia; 2 mg/Kg): 150% | potency versus doxorubicin in Gross leukemia (Gross leukemia): more potent than doxorubicin
